Like-named read-outs stand apart in the source and are kept apart here.
Legend:
Avena fatua (AVEFA) = assay: greenhouse pre-emergence herbicidal activity; assay type: in vivo; settings: 50 g ai/ha, read-out: observed % activity
From the text: (§1) For the pre-emergence treatment, directly after sowing the active compounds, which had been suspended or emulsified in water, were applied by means of finely distributed nozzles. The containers were irrigated gently to promote germination and growth and subsequently covered with transparent plastic hoods until plant had rooted. This cover caused uniform germination of the tests plants, unless this was adversely affected by active compounds.
(§2) The respective herbicides A and/or safener were formulated as 10% by weight strength suspension concentrate and introduced to the spray liquor with the amount of solvent system used for applying the active compound. Herbicide B and/or safener were used as commercially available formulations and introduced to the spray liquor with the amount of solvent system used for applying the active compound. In the examples, the solvent used was water.
(§3) Pendimethalin was used as a commercial aqueous suspension concentrate having an active ingredient concentration of 400 g/l.
(§4) The test period extended over 21 days. During this time, the plants were tended, and their response to the treatments with active compound was evaluated.
(§5) The evaluation for the damage caused by the chemical compositions was carried out using a scale from 0 to 100%, compared to the untreated control plants. Here, 0 means no damage and 100 means complete destruction of the plants.
(§6) The value E, which is to be expected if the activity of the individual compounds is just additive, was calculated using the method of S. R. Colby (1967) “Calculating synergistic and antagonistic responses of herbicide combinations”, Weeds 15, p. 22 ff.
(§7) where • X=effect in percent using herbicide A at an application rate a; • Y=effect in percent using herbicide B at an application rate b; • E=expected effect (in %) of A+B at application rates a+b.
(§8) If the value observed in this manner is higher than the value E calculated according to Colby, a synergistic effect is present.

Bromus inermis (BROIN) = assay: greenhouse pre-emergence herbicidal activity; assay type: in vivo; settings: read-out: observed % activity; for inhibition at 6.25 g/ha: 6.25 g ai/ha; for inhibition at 12.5 g/ha: 12.5 g ai/ha; for inhibition at 25 g/ha: 25 g ai/ha; for inhibition at 50 g/ha: 50 g ai/ha
From the text: as §1, §2, §3, §4, §5, §6, §7, §8

[1] = system: Capsella bursa-pastoris (CAPBP); assay: greenhouse pre-emergence herbicidal activity; assay type: in vivo; settings: read-out: observed % activity; for inhibition at 25 g/ha: 25 g ai/ha; for inhibition at 50 g/ha: 50 g ai/ha
From the text: as §1, §2, §3, §4, §5, §6, §7, §8

Galium aparine (GALAP) = assay: greenhouse pre-emergence herbicidal activity; assay type: in vivo; settings: read-out: observed % activity; for inhibition at 6.25 g/ha: 6.25 g ai/ha; for inhibition at 25 g/ha: 25 g ai/ha; for inhibition at 50 g/ha: 50 g ai/ha
From the text: as §1, §2, §3, §4, §5, §6, §7, §8

[2] = system: Phalaris canariensis (PHACA); assay: greenhouse pre-emergence herbicidal activity; assay type: in vivo; settings: 6.25 g ai/ha, read-out: observed % activity
From the text: as §1, §2, §3, §4, §5, §6, §7, §8

Thlaspi arvense (THLAR) [3] = assay: greenhouse pre-emergence herbicidal activity; assay type: in vivo; settings: read-out: observed % activity; for inhibition at 12.5 g/ha: 12.5 g ai/ha; for inhibition at 50 g/ha: 50 g ai/ha
From the text: as §1, §2, §3, §4, §5, §6, §7, §8

Veronica persica (VERPE) = assay: greenhouse pre-emergence herbicidal activity; assay type: in vivo; settings: read-out: observed % activity; for inhibition at 6.25 g/ha: 6.25 g ai/ha; for inhibition at 12.5 g/ha: 12.5 g ai/ha; for inhibition at 25 g/ha: 25 g ai/ha; for inhibition at 50 g/ha: 50 g ai/ha
From the text: as §1, §2, §3, §4, §5, §6, §7, §8

[4] = system: Alopecurus myosuroides (ALOMY); assay: greenhouse post-emergence herbicidal activity; assay type: in vivo; settings: 25 g ai/ha; for inhibition at 25 g/ha: Alopecurus myosuroides, read-out: observed % activity
From the text: (§9) For the post-emergence treatment, the test plants were first grown to a height of 3 to 20 cm, depending on the plant habit, and only then treated. Here, the herbicidal compositions were suspended or emulsified in water as distribution medium and sprayed using finely distributing nozzles.
as §2, §3, §4, §5, §6, §7, §8

[5] = system: Amaranthus retroflexus (AMARE); assay: greenhouse post-emergence herbicidal activity; assay type: in vivo; settings: 13 g ai/ha, 20 DAT
From the text: as §9, §2, §3, §4, §5, §6, §7, §8

[6] = system: Apera spica-venti (APESV); assay: greenhouse post-emergence herbicidal activity; assay type: in vivo; settings: 50 g ai/ha, 20 DAT
From the text: as §9, §2, §3, §4, §5, §6, §7, §8

[7] = system: Capsella bursa-pastoris (CAPBP); assay: greenhouse post-emergence herbicidal activity; assay type: in vivo; settings: 25 g ai/ha, 20 DAT
From the text: as §9, §2, §3, §4, §5, §6, §7, §8

Lamium purpureum (LAMPU) = assay: greenhouse post-emergence herbicidal activity; assay type: in vivo; settings: 50 g ai/ha, 20 DAT
From the text: as §9, §2, §3, §4, §5, §6, §7, §8

[8] = system: Matricaria inermis (MATIN); assay: greenhouse post-emergence herbicidal activity; assay type: in vivo; settings: 50 g ai/ha, read-out: observed % activity
From the text: as §9, §2, §3, §4, §5, §6, §7, §8

Stellaria media (STEME) = assay: greenhouse post-emergence herbicidal activity; assay type: in vivo; settings: 20 DAT
From the text: as §9, §2, §3, §4, §5, §6, §7, §8

Thlaspi arvense (THLAR) [9] = assay: greenhouse post-emergence herbicidal activity; assay type: in vivo; settings: for inhibition at 100 g/ha: Thlaspi arvense, read-out: observed % activity
From the text: as §9, §2, §3, §4, §5, §6, §7, §8

Viola arvensis (VIOAR) = assay: greenhouse post-emergence herbicidal activity; assay type: in vivo; settings: 25 g ai/ha, 20 DAT
From the text: as §9, §2, §3, §4, §5, §6, §7, §8

harmful plants = settings: known from Y. Yamaji et al., 2006; cited from earlier work

**Q.** With Cn1nc(C(F)(F)F)c(CS(=O)(=O)C2=NOC(C)(C)C2)c1OC(F)F [pyroxasulfone, 3-[5-(difluoromethoxy)-1-methyl-3-(trifluoromethyl)pyrazol-4-ylmethylsulfonyl]-4,5-dihydro-5,5-dimethyl-1,2-oxazole] as the compound, how does the inhibition at 50 g/ha (Avena fatua (AVEFA); 192 h, 8 DAT) read?
**A.** 70%

**Q.** And the inhibition at 50 g/ha (Avena fatua (AVEFA); 480 h, 20 DAT)?
**A.** 85%

**Q.** What about the inhibition at 6.25 g/ha (Bromus inermis (BROIN); 192 h, 8 DAT) of the same compound?
**A.** 40%

**Q.** And the inhibition at 12.5 g/ha (Bromus inermis (BROIN); 192 h, 8 DAT)?
**A.** 50%

**Q.** What about the inhibition at 25 g/ha (Bromus inermis (BROIN); 192 h, 8 DAT) of the same compound?
**A.** 50%

**Q.** And the inhibition at 50 g/ha (Bromus inermis (BROIN); 192 h, 8 DAT)?
**A.** 60%

**Q.** What about the inhibition at 6.25 g/ha (Bromus inermis (BROIN); 480 h, 20 DAT) of the same compound?
**A.** 35%

**Q.** What about the inhibition at 12.5 g/ha (Bromus inermis (BROIN); 480 h, 20 DAT) of the same compound?
**A.** 60%

**Q.** And the inhibition at 25 g/ha (Bromus inermis (BROIN); 480 h, 20 DAT)?
**A.** 60%

**Q.** What about the inhibition at 50 g/ha (Bromus inermis (BROIN); 480 h, 20 DAT) of the same compound?
**A.** 75%

**Q.** And the inhibition at 25 g/ha ([1]; 192 h, 8 DAT)?
**A.** 60%

**Q.** And the inhibition at 50 g/ha ([1]; 192 h, 8 DAT)?
**A.** 60%

**Q.** What about the inhibition at 25 g/ha ([1]; 480 h, 20 DAT) of the same compound?
**A.** 95%

**Q.** What about the inhibition at 50 g/ha ([1]; 480 h, 20 DAT) of the same compound?
**A.** 95%

**Q.** What about the inhibition at 6.25 g/ha (Galium aparine (GALAP); 192 h, 8 DAT) of the same compound?
**A.** 30%

**Q.** And the inhibition at 25 g/ha (Galium aparine (GALAP); 192 h, 8 DAT)?
**A.** 60%

**Q.** And the inhibition at 50 g/ha (Galium aparine (GALAP); 192 h, 8 DAT)?
**A.** 60%

**Q.** What about the inhibition at 6.25 g/ha (Galium aparine (GALAP); 480 h, 20 DAT) of the same compound?
**A.** 20%

**Q.** What about the inhibition at 25 g/ha (Galium aparine (GALAP); 480 h, 20 DAT) of the same compound?
**A.** 75%

**Q.** And the inhibition at 50 g/ha (Galium aparine (GALAP); 480 h, 20 DAT)?
**A.** 80%

**Q.** And the inhibition at 6.25 g/ha ([2]; 192 h, 8 DAT)?
**A.** 40%

**Q.** And the inhibition at 6.25 g/ha ([2]; 480 h, 20 DAT)?
**A.** 40%

**Q.** And the inhibition at 12.5 g/ha (Thlaspi arvense (THLAR) [3]; 192 h, 8 DAT)?
**A.** 40%

**Q.** And the inhibition at 50 g/ha (Thlaspi arvense (THLAR) [3]; 192 h, 8 DAT)?
**A.** 60%

**Q.** And the inhibition at 12.5 g/ha (Thlaspi arvense (THLAR) [3]; 480 h, 20 DAT)?
**A.** 30%

**Q.** And the inhibition at 50 g/ha (Thlaspi arvense (THLAR) [3]; 480 h, 20 DAT)?
**A.** 80%

**Q.** What about the inhibition at 6.25 g/ha (Veronica persica (VERPE); 192 h, 8 DAT) of the same compound?
**A.** 45%

**Q.** What about the inhibition at 12.5 g/ha (Veronica persica (VERPE); 192 h, 8 DAT) of the same compound?
**A.** 60%

**Q.** What about the inhibition at 25 g/ha (Veronica persica (VERPE); 192 h, 8 DAT) of the same compound?
**A.** 60%

**Q.** And the inhibition at 50 g/ha (Veronica persica (VERPE); 192 h, 8 DAT)?
**A.** 60%

**Q.** What about the inhibition at 6.25 g/ha (Veronica persica (VERPE); 480 h, 20 DAT) of the same compound?
**A.** 70%

**Q.** And the inhibition at 12.5 g/ha (Veronica persica (VERPE); 480 h, 20 DAT)?
**A.** 90%

**Q.** What about the inhibition at 25 g/ha (Veronica persica (VERPE); 480 h, 20 DAT) of the same compound?
**A.** 85%

**Q.** What about the inhibition at 50 g/ha (Veronica persica (VERPE); 480 h, 20 DAT) of the same compound?
**A.** 90%

**Q.** What about the “observed activity in % destruction 20 days after treatment” value ([4]; 20 DAT) of the same compound?
**A.** 65%

**Q.** And the inhibition at 25 g/ha ([4]; 168 h, 7 DAT)?
**A.** 25%

**Q.** And the inhibition at 25 g/ha ([4]; 480 h, 20 DAT)?
**A.** 65%

**Q.** And the “observed activity in % destruction 20 days after treatment” value [5]?
**A.** 45%

**Q.** And the “observed activity in % destruction 20 days after treatment” value [6]?
**A.** 85%

**Q.** What about the “observed activity in % destruction 20 days after treatment” value [7] of the same compound?
**A.** 35%

**Q.** What about the “observed activity in % destruction 20 days after treatment” value (Lamium purpureum (LAMPU)) of the same compound?
**A.** 70%

**Q.** What about the inhibition at 50 g/ha ([8]; 168 h, 7 DAT) of the same compound?
**A.** 40%

**Q.** And the inhibition at 50 g/ha ([8]; 480 h, 20 DAT)?
**A.** 0%

**Q.** And the “observed activity in % destruction 20 days after treatment” value (Stellaria media (STEME); 50 g ai/ha)?
**A.** 85%

**Q.** What about the “observed activity in % destruction 20 days after treatment” value (Stellaria media (STEME); 100 g ai/ha) of the same compound?
**A.** 95%

**Q.** What about the “observed activity in % destruction 20 days after treatment” value (Thlaspi arvense (THLAR) [9]; 25 g ai/ha, 20 DAT) of the same compound?
**A.** 50%

**Q.** What about the “observed activity in % destruction 20 days after treatment” value (Thlaspi arvense (THLAR) [9]; 100 g ai/ha, 20 DAT) of the same compound?
**A.** 80%

**Q.** What about the inhibition at 100 g/ha (Thlaspi arvense (THLAR) [9]; 168 h, 100 g ai/ha, 7 DAT) of the same compound?
**A.** 70%

**Q.** What about the inhibition at 100 g/ha (Thlaspi arvense (THLAR) [9]; 480 h, 100 g ai/ha, 20 DAT) of the same compound?
**A.** 80%

**Q.** What about the “observed activity in % destruction 20 days after treatment” value (Viola arvensis (VIOAR)) of the same compound?
**A.** 0%

**Q.** What about the post-emergence activity (harmful plants) of the same compound?
**A.** only poor post-emergence activity
